These results are taken from patent US11180501B2, “Crystal form of β-lactamase inhibitor and preparation method therefor” (priority 2017, dated 2021).

Structures are written as SMILES.

One data set is described as follows: pKa of side-chain group. The class given is physicochemical. The following applies: guanidinoxy group.
The nature of data set [1]: Study on polymorphism, solvent scheme 1 (suspension). The class given is physicochemical. As to conditions: 40° C. in the dark for 2 days, XRPD. As for the experimental part: 1. Three samples of about 35 mg of the compound of formula (I) were weighed and placed into 1.5 mL borosilicate glass bottles, respectively, followed by addition of 200 μL of solvent (see Table 2 for the solvent scheme). The obtained mixture was mixed evenly with ultrasound and then placed on a thermostatic oscillator, stirred at 40° C. in the dark for 2 days, and centrifuged quickly. The obtained solid was subjected to XRPD detection (wet product), and then dried in a vacuum dryer at 30° C. for about 15 hours. The obtained dry product was subjected to XPRD detection (dry product).

Data set [2] in a line: Study on polymorphism, solvent scheme 2 (dissolved, evaporated to dryness). As to conditions: 40° C. 2 days, XRPD. Type of data set: physicochemical. As for the experimental part:
2. Three samples of about 35 mg of compound of formula (I) were weighed and placed into 1.5 mL borosilicate glass bottles, respectively, followed by addition of 600 μL of a solvent (see Table 3 for the solvent scheme). The obtained mixture was mixed evenly with ultrasound and then placed on a thermostatic oscillator, stirred at 40° C. in the dark for 2 days. Then the samples was placed into a fume hood and evaporated to dryness. The obtained samples were subjected to XRPD detection (wet product). The samples were placed in a vacuum dryer and dried at 30° C. for about 15 hours. The obtained dried samples were subjected to XRPD detection (dry product).

Data set [3] concerns KPC-2 carbapenemase-producing Klebsiella Pneumoniae. Briefly: In vitro synergistic inhibitory concentration (SIC) assay, broth microdilution MIC. The following applies: in combination with an antibiotic; KPC-2 type. The class given is cell-based. As for the experimental part: (§1) The minimum inhibitory concentration (MIC) of the compound of formula (I) against clinically isolated carbapenemase-producing strains was determined by the broth microdilution method.
(§2) 1. Drug susceptibility test: the MIC of commonly used antibacterial drugs against clinically isolated bacteria was determined by the broth microdilution method according to the antimicrobial susceptibility test method described in the 2016 edition of the U.S. Clinical and Laboratory Standards Institute (CLSI) document.
(§3) 2. Strains: 8 KPC-2 carbapenemase-producing strains, 8 NDM-1 metalloenzyme-producing strains, 6 OXA carbapenemase-producing strains, and all strains were clinically isolated Klebsiella pneumoniae.
(§4) 4. Quality control strains: the quality control strains for the drug susceptibility test included Escherichia coli ATCC 25922 and ATCC 35218.
(Dilution methods test growth across graded concentrations, often in twofold steps.)

In data set [4] the test system is NDM-1 carbapenemase-producing Klebsiella Pneumoniae. The description is as above. The class given is cell-based. The protocol:
as §1, §2, §3, §4

Data set [5] has as its system OXA-181 carbapenemase-producing Klebsiella Pneumoniae. Described as above. Type of data set: cell-based. As to conditions: in combination with an antibiotic; OXA-181 type. The protocol: as §1, §2
2. […]
as §4

The test system of data set [6] is Klebsiella pneumoniae (ATCC BAA-1705, KPC-2). Briefly: Mouse lung infection model. As to conditions: female CD-1 mice, ip, with ceftazidime, FIG. 5. The class given is in vivo. The protocol:
Female CD-1 mice of about 7 weeks old, weighing 26-28 g; cyclophosphamide was injected at a dose of 150 mg/kg 4 days before infection, and further 100 mg/kg 1 day before infection; the bacteria for infection was Klebsiella pneumoniae (ATCC BAA-1705, KPC-2). The compound of formula (I) and the reference compound OP-0595 were synthesized in the laboratory.
Female CD-1 mice were infected with Klebsiella pneumoniae by intranasal instillation. Each mouse was instilled with 50 μL of bacterial liquid through nasal cavity at a dose of 3.14E+07 CFU per mouse. At 2 h, 4 h, 6 h and 8 h after infection, each group of mice were treated with a corresponding compound or a combination of compounds by intraperitoneal injection.
At 10 h after infection, the mice in groups 1, 2 and 3 were euthanized, and the lungs were taken out and placed in 50 mL centrifuge tubes containing 10 mL of sterile normal saline, the tubes were placed on wet ice and transferred to BSL-2 laboratory for CFU counting. […]
The lungs were ground with an IKA T10 homogenizer (the maximum speed was 20S, repeated once). […] After 24 hours, the plate was taken out and the number of single colonies grown in each homogenate with a gradient dilution on the plate was counted, and the amount of bacterial load in the lung of each mouse was calculated.

The molecule `N=C(N)NOCCONC(=O)C1CCC2CN1C(=O)N2OS(=O)(=O)O` (stereo not shown) [the compound of formula (I)] gave a pKa in the data set “pKa of side-chain group” of 8.83. The Crystal form result in data set [1] (Acetone), in data set [1] (Acetonitrile), in data set [1] (Cyclohexane), in data set [1] (Ethanol), in data set [1] (Ethanol-water (volume ratio 1:1)) and in data set [1] (Ethanol-water (volume ratio 3:1)) was “Crystal form A” throughout. Moreover, the Crystal form result in data set [1] (Ethyl acetate), in data set [1] (Isopropanol-water (volume ratio 1:1)), in data set [1] (Methanol), in data set [1] (Methanol-water (volume ratio 1:1)), in data set [1] (Methanol-water (volume ratio 3:1)) and in data set [1] (Tetrahydrofuran) was “Crystal form A” in each case. In addition, the Crystal form entry in data set [1] (Water), in data set [2] (Acetone-water (volume ratio 1:2)) and in data set [2] (Acetonitrile-water (volume ratio 1:1)) was “Crystal form A” each time. Moreover, the “antibacterial activity (conclusion)” value is “strong antibacterial activity” in data set [3]; “strong antibacterial activity” in data set [4] (in combination with an antibiotic, NDM-1 type); “strong antibacterial activity” in data set [5]. In addition, the “inhibitory activity compared with avibactam” value in data set [4] (NDM-1 type carbapenemase-producing bacteria) is reported as “significantly better than that of avibactam”. In addition, the “reduction of the amount of bacterial load in the lung versus the reference group of OP-0595” value in data set [6] (at two different doses (25 & 6.25 mpk; 50 & 12.5 mpk)) is 0.5-1.5 logs. For the same molecule, the “potency compared with OP-0595” value in data set [6] is given as “significantly more potent than the reference compound OP-0595”.

The pKa is the negative logarithm of the acid dissociation constant. Read a high pKa as a group that holds its proton tightly.
